This passage reports tumour burden results from patent US11351209B2 (priority 2016, dated 2022).

One assay concerns CT26 flank tumours. Put plainly: Efficacy study, oral IC87114 and intravenous VVL15, CT26 flank tumours. The settings on record: IC87114 50 mg kg^−1 oral gavage three hours before intravenous 1×10^8 PFU VVL15 (Group D), days 8, 11, 13, vs all other groups. It is filed as in vivo, BALB/c mice.
In the next assay the test system is orthotopic 4T1 tumours. The assay is described as follows: Efficacy study, oral IC87114 and intravenous VVL15, orthotopic 4T1 tumours. In kind it is in vivo, BALB/c mice. As to conditions: 4T1 orthotopic; IC87114 75 mg kg^−1 oral gavage three hours before intravenous 1×10^8 PFU VVL15 (Group D), days 12, 15, 17; vs all other groups.

Entries after “also recorded” stand apart in the source; their conditions may differ.

As to `Cc1ccccc1-n1c(Cn2cnc3c(N)ncnc32)nc2cccc(C)c2c1=O` [IC87114, 2-[(6-amino-9H-purin-9-yl)methyl]-5-methyl-3-(2-methylphenyl)-4(3H)-quinazolinone], the tumour burden result with CT26 flank tumours and in the assay with orthotopic 4T1 tumours was “significantly reduces the tumour burden; also recorded: significantly less tumour burden; also recorded: reduced tumour burden” in each case.
